Experimental data: the NIST ThermoML archive (doi:10.1016/j.fluid.2018.09.024)
Numbers after ± are expanded uncertainties.

Assay: activity coefficient (dimensionless); of the first substance listed, at infinite dilution; xn = mol fraction of the nth substance listed
Conditions: 318.15 K; 101.33 kPa; Liquid; Chromatography; x1 = 0

Row | Compound | activity coefficient
1 | C1CCCCCCC1 [cyclooctane] + CCCCCCCCCCCC[N+](C)(C)CCOc1ccccc1.O=S(=O)([N-]S(=O)(=O)C(F)(F)F)C(F)(F)F | 2.57 ± 0.17
2 | CCCCCCCCCC [decane] + CCCCCCCCCCCC[N+](C)(C)CCOc1ccccc1.O=S(=O)([N-]S(=O)(=O)C(F)(F)F)C(F)(F)F | 5.72 ± 0.39
3 | CCOCC [diethyl ether] + CCCCCCCCCCCC[N+](C)(C)CCOc1ccccc1.O=S(=O)([N-]S(=O)(=O)C(F)(F)F)C(F)(F)F | 1.06 ± 0.07
4 | CC(C)OC(C)C [diisopropyl ether] + CCCCCCCCCCCC[N+](C)(C)CCOc1ccccc1.O=S(=O)([N-]S(=O)(=O)C(F)(F)F)C(F)(F)F | 1.9 ± 0.13
5 | CCCOCCC [dipropyl ether] + CCCCCCCCCCCC[N+](C)(C)CCOc1ccccc1.O=S(=O)([N-]S(=O)(=O)C(F)(F)F)C(F)(F)F | 1.78 ± 0.12
6 | CCO [ethanol] + CCCCCCCCCCCC[N+](C)(C)CCOc1ccccc1.O=S(=O)([N-]S(=O)(=O)C(F)(F)F)C(F)(F)F | 1.24 ± 0.08
7 | CCOC(C)=O [ethyl acetate] + CCCCCCCCCCCC[N+](C)(C)CCOc1ccccc1.O=S(=O)([N-]S(=O)(=O)C(F)(F)F)C(F)(F)F | 0.505 ± 0.038
8 | CCc1ccccc1 [ethylbenzene] + CCCCCCCCCCCC[N+](C)(C)CCOc1ccccc1.O=S(=O)([N-]S(=O)(=O)C(F)(F)F)C(F)(F)F | 0.9 ± 0.057
9 | CCCCCCC [heptane] + CCCCCCCCCCCC[N+](C)(C)CCOc1ccccc1.O=S(=O)([N-]S(=O)(=O)C(F)(F)F)C(F)(F)F | 3.44 ± 0.23
10 | C=CCCCC [hex-1-ene] + CCCCCCCCCCCC[N+](C)(C)CCOc1ccccc1.O=S(=O)([N-]S(=O)(=O)C(F)(F)F)C(F)(F)F | 2.19 ± 0.15
11 | CCCCCC [hexane] + CCCCCCCCCCCC[N+](C)(C)CCOc1ccccc1.O=S(=O)([N-]S(=O)(=O)C(F)(F)F)C(F)(F)F | 2.91 ± 0.2
12 | CC(C)c1ccccc1 [isopropylbenzene] + CCCCCCCCCCCC[N+](C)(C)CCOc1ccccc1.O=S(=O)([N-]S(=O)(=O)C(F)(F)F)C(F)(F)F | 1.14 ± 0.07
13 | CO [methanol] + CCCCCCCCCCCC[N+](C)(C)CCOc1ccccc1.O=S(=O)([N-]S(=O)(=O)C(F)(F)F)C(F)(F)F | 1.1 ± 0.07
14 | CCCC(=O)OC [methyl butanoate] + CCCCCCCCCCCC[N+](C)(C)CCOc1ccccc1.O=S(=O)([N-]S(=O)(=O)C(F)(F)F)C(F)(F)F | 0.565 ± 0.041
15 | COC(C)=O [methyl ethanoate] + CCCCCCCCCCCC[N+](C)(C)CCOc1ccccc1.O=S(=O)([N-]S(=O)(=O)C(F)(F)F)C(F)(F)F | 0.474 ± 0.037
16 | CCC(=O)OC [methyl propanoate] + CCCCCCCCCCCC[N+](C)(C)CCOc1ccccc1.O=S(=O)([N-]S(=O)(=O)C(F)(F)F)C(F)(F)F | 0.498 ± 0.038

Same assay, conditions: 328.15 K; 101.33 kPa; Liquid; Chromatography; x1 = 0

Row | Compound | activity coefficient
17 | C1CCCCCCC1 [cyclooctane] + CCCCCCCCCCCC[N+](C)(C)CCOc1ccccc1.O=S(=O)([N-]S(=O)(=O)C(F)(F)F)C(F)(F)F | 2.61 ± 0.18
18 | CCCCCCCCCC [decane] + CCCCCCCCCCCC[N+](C)(C)CCOc1ccccc1.N#C[N-]C#N | 9.02 ± 0.62
19 | CCCCCCCCCC [decane] + CCCCCCCCCCCC[N+](C)(C)CCOc1ccccc1.O=S(=O)([N-]S(=O)(=O)C(F)(F)F)C(F)(F)F | 5.8 ± 0.4
20 | CCOCC [diethyl ether] + CCCCCCCCCCCC[N+](C)(C)CCOc1ccccc1.N#C[N-]C#N | 2.17 ± 0.15
21 | CCOCC [diethyl ether] + CCCCCCCCCCCC[N+](C)(C)CCOc1ccccc1.O=S(=O)([N-]S(=O)(=O)C(F)(F)F)C(F)(F)F | 1.12 ± 0.07
22 | CC(C)OC(C)C [diisopropyl ether] + CCCCCCCCCCCC[N+](C)(C)CCOc1ccccc1.N#C[N-]C#N | 4.03 ± 0.27
23 | CC(C)OC(C)C [diisopropyl ether] + CCCCCCCCCCCC[N+](C)(C)CCOc1ccccc1.O=S(=O)([N-]S(=O)(=O)C(F)(F)F)C(F)(F)F | 1.97 ± 0.13
24 | CCCOCCC [dipropyl ether] + CCCCCCCCCCCC[N+](C)(C)CCOc1ccccc1.N#C[N-]C#N | 3.36 ± 0.23
25 | CCCOCCC [dipropyl ether] + CCCCCCCCCCCC[N+](C)(C)CCOc1ccccc1.O=S(=O)([N-]S(=O)(=O)C(F)(F)F)C(F)(F)F | 1.85 ± 0.12
26 | CCO [ethanol] + CCCCCCCCCCCC[N+](C)(C)CCOc1ccccc1.N#C[N-]C#N | 0.411 ± 0.034
27 | CCO [ethanol] + CCCCCCCCCCCC[N+](C)(C)CCOc1ccccc1.O=S(=O)([N-]S(=O)(=O)C(F)(F)F)C(F)(F)F | 1.2 ± 0.08
28 | CCOC(C)=O [ethyl acetate] + CCCCCCCCCCCC[N+](C)(C)CCOc1ccccc1.N#C[N-]C#N | 1.2 ± 0.08
29 | CCOC(C)=O [ethyl acetate] + CCCCCCCCCCCC[N+](C)(C)CCOc1ccccc1.O=S(=O)([N-]S(=O)(=O)C(F)(F)F)C(F)(F)F | 0.533 ± 0.039
30 | CCc1ccccc1 [ethylbenzene] + CCCCCCCCCCCC[N+](C)(C)CCOc1ccccc1.N#C[N-]C#N | 1.4 ± 0.09
31 | CCc1ccccc1 [ethylbenzene] + CCCCCCCCCCCC[N+](C)(C)CCOc1ccccc1.O=S(=O)([N-]S(=O)(=O)C(F)(F)F)C(F)(F)F | 0.948 ± 0.06
32 | CCCCCCC [heptane] + CCCCCCCCCCCC[N+](C)(C)CCOc1ccccc1.N#C[N-]C#N | 5.99 ± 0.41
33 | CCCCCCC [heptane] + CCCCCCCCCCCC[N+](C)(C)CCOc1ccccc1.O=S(=O)([N-]S(=O)(=O)C(F)(F)F)C(F)(F)F | 3.52 ± 0.24
34 | C=CCCCC [hex-1-ene] + CCCCCCCCCCCC[N+](C)(C)CCOc1ccccc1.N#C[N-]C#N | 3.59 ± 0.24
35 | C=CCCCC [hex-1-ene] + CCCCCCCCCCCC[N+](C)(C)CCOc1ccccc1.O=S(=O)([N-]S(=O)(=O)C(F)(F)F)C(F)(F)F | 2.24 ± 0.15
36 | CCCCCC [hexane] + CCCCCCCCCCCC[N+](C)(C)CCOc1ccccc1.N#C[N-]C#N | 5.12 ± 0.35
37 | CCCCCC [hexane] + CCCCCCCCCCCC[N+](C)(C)CCOc1ccccc1.O=S(=O)([N-]S(=O)(=O)C(F)(F)F)C(F)(F)F | 2.99 ± 0.2
38 | CC(C)c1ccccc1 [isopropylbenzene] + CCCCCCCCCCCC[N+](C)(C)CCOc1ccccc1.N#C[N-]C#N | 1.82 ± 0.12
39 | CC(C)c1ccccc1 [isopropylbenzene] + CCCCCCCCCCCC[N+](C)(C)CCOc1ccccc1.O=S(=O)([N-]S(=O)(=O)C(F)(F)F)C(F)(F)F | 1.19 ± 0.08
40 | CO [methanol] + CCCCCCCCCCCC[N+](C)(C)CCOc1ccccc1.N#C[N-]C#N | 0.316 ± 0.031
41 | CO [methanol] + CCCCCCCCCCCC[N+](C)(C)CCOc1ccccc1.O=S(=O)([N-]S(=O)(=O)C(F)(F)F)C(F)(F)F | 1.06 ± 0.07
42 | CCCC(=O)OC [methyl butanoate] + CCCCCCCCCCCC[N+](C)(C)CCOc1ccccc1.N#C[N-]C#N | 1.29 ± 0.08
43 | CCCC(=O)OC [methyl butanoate] + CCCCCCCCCCCC[N+](C)(C)CCOc1ccccc1.O=S(=O)([N-]S(=O)(=O)C(F)(F)F)C(F)(F)F | 0.601 ± 0.042
44 | COC(C)=O [methyl ethanoate] + CCCCCCCCCCCC[N+](C)(C)CCOc1ccccc1.N#C[N-]C#N | 1.03 ± 0.06
45 | COC(C)=O [methyl ethanoate] + CCCCCCCCCCCC[N+](C)(C)CCOc1ccccc1.O=S(=O)([N-]S(=O)(=O)C(F)(F)F)C(F)(F)F | 0.503 ± 0.038
46 | CCC(=O)OC [methyl propanoate] + CCCCCCCCCCCC[N+](C)(C)CCOc1ccccc1.N#C[N-]C#N | 1.13 ± 0.07
